This note sets out measurements from patent US10441562B2, “Aromatic farnesyl compound and application thereof” (INSTITUTE OF MICROBIOLOGY, CHINESE ACADEMY OF SCIENCES, priority 2015, dated 2019).

Structures are written as SMILES. Where two headings read alike, the source gives them in different places.

Holding throughout (format): biochemical
Assay [1] concerns the target T1, α-glucosidase (Saccharomyces cerevisiae, UniProt P53341).
T1 construct: purchased Sigma Corporation G5003
Briefly: α-glucosidase inhibitory activity test in vitro. How it is done:
Add 25 μL α-glucosidase water solution (0.2 U/mL) and 175 μL phosphate buffer (50 mM, pH 7.0) into 25 μL different concentration of the above test solutions. The mixed solution is standed for 10 min at room temperature, and then 25 μL 4-nitrophenyl-α-D-glucopyranoside water solution (2.5 mM) is added into the mixed solution. After the solution is incubated at 37 °C for 30 min and centrifuged at 5000 rpm for 5 minutes, 150 uL supernatant is added into 96-well plates and the absorbance is detected at 405 nm.
Blank group: the test solution is replaced by 25 μL phosphate buffer (50 mM, pH 7.0); blank control group: the test solution is replaced by 25 μL phosphate buffer (50 mM, pH 7.0), meanwhile α-glucosidase water solution is replaced by 25 μL phosphate buffer (50 mM, pH 7.0); sample control group: α-glucosidase water solution is replaced by 25 μL phosphate buffer (50 mM, pH 7.0).
(§1) Repeat each of the above experiment groups for 3 times, and then average the results.
IC50=[CL(IH−50)+CH(50−IL)]/(IH−IL) CL: low concentration value; CH: high concentration value; IH: inhibition rate in high concentration; IL: inhibition rate in low concentration

Assay [2] deals with T2, HMG-CoA reductase (Homo sapiens, UniProt P04035).
T2 sequence (P04035 426-888 limits assumed): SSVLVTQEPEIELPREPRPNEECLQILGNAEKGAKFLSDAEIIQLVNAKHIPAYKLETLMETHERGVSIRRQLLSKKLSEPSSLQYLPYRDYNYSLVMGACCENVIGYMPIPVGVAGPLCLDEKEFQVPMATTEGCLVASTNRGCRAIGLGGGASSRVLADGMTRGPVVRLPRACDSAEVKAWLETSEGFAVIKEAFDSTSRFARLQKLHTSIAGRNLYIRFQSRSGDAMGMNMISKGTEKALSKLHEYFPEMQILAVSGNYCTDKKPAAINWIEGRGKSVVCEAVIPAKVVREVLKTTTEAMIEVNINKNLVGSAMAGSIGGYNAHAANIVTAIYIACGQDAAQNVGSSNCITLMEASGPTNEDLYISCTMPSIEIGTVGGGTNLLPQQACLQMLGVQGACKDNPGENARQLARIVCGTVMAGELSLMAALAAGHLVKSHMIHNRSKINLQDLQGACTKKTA
The experiment in a line: HMG-CoA reductase inhibitory activity test in vitro. As for the experimental part:
Add 25 μL HMG-CoA reductase water solution (0.2 U/mL), 25 μL NADPH water solution (0.2 U/mL) and 24 μL phosphate buffer (50 mM, pH 7.0) into 1 μL different concentration of the above test solution. The mixed solution is standed for 10 min at room temperature, and then 25 μL HMG-CoA is added into the mixed solution. After the solution is incubated at 37∞ for 30 min and centrifuged at 5000 rpm for 5 minutes, 80 uL supernatant is added into 96-well plates and the absorbance is detected at 550 nm.
as §1

Assay [3] deals with T3, protein tyrosine phosphatase 1B (PTP-1B) (Homo sapiens, UniProt P18031).
T3 sequence (P18031 1-435): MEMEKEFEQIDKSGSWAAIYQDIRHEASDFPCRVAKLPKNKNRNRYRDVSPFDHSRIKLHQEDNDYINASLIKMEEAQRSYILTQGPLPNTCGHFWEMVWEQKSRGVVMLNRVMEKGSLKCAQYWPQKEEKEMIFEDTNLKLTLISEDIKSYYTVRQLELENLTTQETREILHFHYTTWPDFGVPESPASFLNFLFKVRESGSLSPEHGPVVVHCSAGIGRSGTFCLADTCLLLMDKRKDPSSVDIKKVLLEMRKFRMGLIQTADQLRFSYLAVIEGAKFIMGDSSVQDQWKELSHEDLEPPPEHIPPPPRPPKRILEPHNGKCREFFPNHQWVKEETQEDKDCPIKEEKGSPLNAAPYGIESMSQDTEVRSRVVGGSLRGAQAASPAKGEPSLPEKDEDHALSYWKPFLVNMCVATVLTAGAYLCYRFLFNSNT
Briefly: PTP-1B inhibitory activity test in vitro. How it is done: Experimental procedure: the following reagents are added into 96-well plates in sequence and the mixture ratios of different groups are as followings: Test group: 50 μL compound solution+50 μL 170 μg/mL PTP-1B solution […] Blank group: 50 μL buffer solution+50 μL 170 μg/mL PTP-1B solution Background group: 50 μL compound solution+50 μL buffer solution After adding the reagents, the 96-well plate is […] for 10 min at room temperature to make the compound and the enzyme react completely. Add 50 μL 1 mM pNPP solution which is used as substrate and incubate the mixed solution at 37 °C for 30 min. Then add 50 μL 3M NaOH into each well of the plate to stop the reaction and the optical density is detected at […].

Assay [4] addresses aldose reductase (Homo sapiens, UniProt P15121). Briefly: aldose reductase inhibitory activity test in vitro. How it is done:
Experimental procedure: the following reagents are added into 96-well plates in sequence and the mixture ratios of different groups are as followings:
Test group: 10 μL compound solution+25 μL (0.1 mM) NADPH solution+25 μL PBS buffer solution+15 μL aldose reductase diluent
Blank group: 25 μL (0.1 mM) NADPH solution+35 μL PBS buffer solution+15 μL aldose reductase diluent
Background group: 25 μL (0.1 mM) NADPH solution+60 μL PBS buffer solution+15 μL aldose reductase diluent
After adding the reagents, the 96-well plate is standed for 10 min at room temperature to make the compound and the enzyme react completely. Add 25 μL 10 mM D, L glyceraldehyde solution which is used as substrate into the groups except for background group, and incubate the solution at 37 °C for 30 min. Then detect the optical density of each well at 340 nm.

Assay [5] concerns the target T4, dipeptidyl peptidase-4 (Homo sapiens, UniProt P27487).
T4 construct: purchased
Briefly: dipeptidyl peptidase-4 inhibitory activity test in vitro (DPP-4 inhibitor screening kit). The text has this:
The above compounds are detected by DPP-4 inhibitor screening kit.

The mark [6] stands for this setting: read-out: α-glucosidase inhibitory activity (IC50).

T1 sequence (P53341 whole entry): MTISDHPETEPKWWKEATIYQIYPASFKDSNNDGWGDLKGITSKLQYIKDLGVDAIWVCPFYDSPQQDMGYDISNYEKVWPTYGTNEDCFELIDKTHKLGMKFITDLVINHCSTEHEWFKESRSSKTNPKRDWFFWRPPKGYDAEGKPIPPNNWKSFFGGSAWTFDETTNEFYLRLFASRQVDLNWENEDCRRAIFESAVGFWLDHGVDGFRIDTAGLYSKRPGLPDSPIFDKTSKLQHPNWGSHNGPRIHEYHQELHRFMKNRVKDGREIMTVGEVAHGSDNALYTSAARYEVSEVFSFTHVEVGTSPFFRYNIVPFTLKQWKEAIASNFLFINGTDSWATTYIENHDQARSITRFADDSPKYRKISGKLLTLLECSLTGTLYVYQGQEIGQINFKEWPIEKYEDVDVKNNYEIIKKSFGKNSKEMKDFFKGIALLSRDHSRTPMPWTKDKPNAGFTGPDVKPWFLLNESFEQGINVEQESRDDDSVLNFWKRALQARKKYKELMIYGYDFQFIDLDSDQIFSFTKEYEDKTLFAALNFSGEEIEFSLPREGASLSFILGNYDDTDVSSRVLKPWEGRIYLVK
T4 sequence (P27487 whole entry, species assumed): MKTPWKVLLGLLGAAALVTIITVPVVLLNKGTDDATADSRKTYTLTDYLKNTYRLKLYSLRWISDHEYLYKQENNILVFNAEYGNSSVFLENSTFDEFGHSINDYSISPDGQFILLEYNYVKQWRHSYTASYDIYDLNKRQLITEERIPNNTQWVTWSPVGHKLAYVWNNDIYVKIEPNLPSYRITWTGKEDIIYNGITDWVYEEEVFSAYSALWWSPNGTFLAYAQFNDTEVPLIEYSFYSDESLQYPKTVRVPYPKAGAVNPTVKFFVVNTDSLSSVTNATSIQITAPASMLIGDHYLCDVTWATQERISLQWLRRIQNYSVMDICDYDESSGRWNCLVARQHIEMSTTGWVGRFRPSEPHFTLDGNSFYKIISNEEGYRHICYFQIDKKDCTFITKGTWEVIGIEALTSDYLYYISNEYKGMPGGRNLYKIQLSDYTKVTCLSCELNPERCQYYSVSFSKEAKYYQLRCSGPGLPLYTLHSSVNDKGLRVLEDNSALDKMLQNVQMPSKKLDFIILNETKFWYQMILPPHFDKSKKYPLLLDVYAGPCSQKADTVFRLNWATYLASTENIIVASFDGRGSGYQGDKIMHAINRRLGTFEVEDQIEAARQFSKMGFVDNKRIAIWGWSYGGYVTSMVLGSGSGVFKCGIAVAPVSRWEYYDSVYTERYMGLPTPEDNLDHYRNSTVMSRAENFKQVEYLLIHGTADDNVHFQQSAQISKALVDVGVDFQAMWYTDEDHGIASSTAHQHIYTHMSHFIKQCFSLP

Take `CC(C)=CCC/C(C)=C/CCC1=C[C@H](c2ccccc2)OC1=O` [S1, (R,E)-3-(4,8-dimethylnona-3,7-dien-1-yl)-5-phenylfuran-2 (5H)-one]: the IC50 was 0.18 µM in assay [1] (setting [6]); 3.8 µM in assay [2]; 10.5 µM in assay [3]; 56.1 µM in assay [4]; 12.2 µM in assay [5].

In the case of `CC(C)=CCC/C(C)=C/CC/C(=C/C(=O)c1cc(O)ccc1O)C(=O)O` [S32, (2Z,5E)-2-(2-(2,5-dihydroxyphenyl)-2-oxoethylidene)-6,10-dimethylundeca-5,9-dienoic acid], the IC50 worked out at 5.43 µM in assay [1] (setting [6]); 5.4 µM in assay [2]; 7.6 µM in assay [3]; 34.9 µM in assay [4]; 21.2 µM in assay [5].

Take `CC(C)=CCC/C(C)=C/CCC1=C[C@H](c2c(F)cccc2F)OC1=O` [S14, (R,E)-5-(2,6-difluorophenyl)-3-(4,8-dimethylnona-3,7-dien-1-yl)furan-2(5H)-one]: the IC50 in assay [1] (setting [6]) came out at 3.72 µM; in assay [2], 25.1 µM; in assay [3], 3.7 µM; in assay [4] it was 32.1 µM; in assay [5], 24.5 µM.

With `CC(C)=CCC/C(C)=C/CCC1=C[C@H](c2ccc([N+](=O)[O-])cc2)OC1=O` [S11, (R,E)-3-(4,8-dimethylnona-3,7-dien-1-yl)-5-(4-nitrophenyl)furan-2(5H)-one], the IC50 in assay [1] (setting [6]) was 34.2 µM; in assay [2], 7.4 µM; in assay [3], 8.1 µM; in assay [4], 4.9 µM; in assay [5], 10.2 µM.

In the case of `COc1ccc([C@H]2C=C(CC/C=C(\C)CCC=C(C)C)C(=O)O2)cc1` [S10, (R,E)-3-(4,8-dimethylnona-3,7-dien-1-yl)-5-(4-methoxyphenyl)furan-2(5H)-one], the IC50 was over 50 µM in assay [1] (setting [6]); 1.2 µM in assay [2]; 10.1 µM in assay [3]; over 100 µM in assay [4]; 18.2 µM in assay [5].

Take `C/C(C=O)=C\CC/C(C)=C/CC/C(=C/Cc1cc(O)ccc1O)C(=O)O` [S35, (2Z,5E,9E)-2-(2-(2,5-dihydroxyphenyl)ethylidene)-6,10-dimethyl-11-oxo undeca-5,9-dienoic acid]: the IC50 in assay [1] stood at 12.3 µM; in assay [2], 20.7 µM; in assay [3] it was 12.3 µM; in assay [4], 5.6 µM; in assay [5], 7.8 µM.

`CC(C)=CCCC1=C[C@H](c2cc(O)ccc2O)OC1=O` [S37, (R)-5-(2,5-dihydroxyphenyl)-3-(4-methylpent-3-en-1-yl)furan-2(5H)-one]: the IC50 in assay [1] (setting [6]) came out at 1.32 µM; in assay [2] it was 65.2 µM; in assay [3] it was 12.3 µM; in assay [4], 12.6 µM; in assay [5], 15.4 µM.

In the case of `CC(C)=CCC/C(C)=C/CCC1=C[C@@H](c2cc(F)c(F)c(F)c2)OC1=O` [S30, (S,E)-3-(4,8-dimethylnona-3,7-dien-1-yl)-5-(3,4,5-trifluorophenyl)furan-2(5H)-one], the IC50 in assay [1] (setting [6]) is 1.25 µM; in assay [2], 24.2 µM; in assay [3], 21.1 µM; in assay [4], 53.4 µM; in assay [5], 11.6 µM.

Turning to `CC(C)=CCC/C(C)=C/CCC1=C[C@@H](c2ccc([N+](=O)[O-])cc2)OC1=O` [S26, (S,E)-3-(4,8-dimethylnona-3,7-dien-1-yl)-5-(4-nitrophenyl)furan-2(5H)-one], the IC50 was 30.3 µM in assay [1] (setting [6]); 7.5 µM in assay [2]; 9.8 µM in assay [3]; 5.3 µM in assay [4]; 10.6 µM in assay [5].

For the molecule `CC(C)=CCCC1=C[C@@H](c2cc(O)ccc2O)OC1=O` [S38, (S)-5-(2,5-dihydroxyphenyl)-3-(4-methylpent-3-en-1-yl)furan-2(5H)-one], the IC50 came out at 1.23 µM in assay [1] (setting [6]); 12.5 µM in assay [2]; 9.8 µM in assay [3]; 67.5 µM in assay [4]; 12.9 µM in assay [5].

Consider `CC(C)=CCC/C(C)=C/CCC1=C[C@H](c2ccc(C(C)(C)C)cc2)OC1=O` [S9, (R,E)-5-(4-(tert-butyl)phenyl)-3-(4,8-dimethylnona-3,7-dien-1-yl)furan-2 (5H)-one], for which the IC50 was 0.16 µM in assay [1] (setting [6]); 16.4 µM in assay [2]; 15.8 µM in assay [3]; 1.4 µM in assay [4]; 19.1 µM in assay [5].

With `CCc1ccc([C@@H]2C=C(CC/C=C(\C)CCC=C(C)C)C(=O)O2)cc1` [S22, (S,E)-3-(4,8-dimethylnona-3,7-dien-1-yl)-5-(4-ethylphenyl)furan-2(5H)-one], the concentration for half-maximal inhibition (IC50) in assay [1] (setting [6]) stood at 0.92 µM; in assay [2], 4.2 µM; in assay [3], 16.4 µM; in assay [4], 55.6 µM; in assay [5] it was 9.5 µM.

As for `CCc1ccc([C@H]2C=C(CC/C=C(\C)CCC=C(C)C)C(=O)O2)cc1` [S7, (R,E)-3-(4,8-dimethylnona-3,7-dien-1-yl)-5-(4-ethylphenyl)furan-2(5H)-one], the IC50 came out at 0.58 µM in assay [1] (setting [6]); 4.2 µM in assay [2]; 15.5 µM in assay [3]; 59 µM in assay [4]; 9.2 µM in assay [5].

For the molecule `C/C(=C\CC/C(C)=C/CC/C(=C/Cc1cc(O)ccc1O)C(=O)O)CO` [S33, (2Z,5E,9E)-2-(2-(2,5-dihydroxyphenyl)ethylidene)-11-hydroxy-6,10-dimethylundeca-5,9-dienoic acid], the IC50 in assay [1] is 12.2 µM; in assay [2], 32.9 µM; in assay [3], 4.5 µM; in assay [4] it was 23.1 µM; in assay [5], 18.7 µM.

`COc1ccc(OC)c([C@@H]2C=C(CC/C=C(\C)CCC=C(C)C)C(=O)O2)c1` [S27, (S,E)-5-(2,5-dimethoxyphenyl)-3-(4,8-dimethylnona-3,7-dien-1-yl)furan-2(5H)-one]: the IC50 in assay [1] (setting [6]) is 15.3 µM; in assay [2], 4.4 µM; in assay [3], 12.3 µM; in assay [4], 25.2 µM; in assay [5] it was 8.6 µM.
